# Measurements as given in patent US10597388B2, “Pyridazinone herbicides” (FMC CORPORATION, priority 2014, dated 2020).
# Legend:
# Test in all cases: Test C greenhouse herbicide test, pre- and postemergence
# Type in all cases: in vivo
# [1] = test system: barnyardgrass (Echinochloa crus-galli); conditions: Preemergence; for Plant response rating, Barnyardgrass: scale 0 to 100, 0 is no effect, 100 is complete control
# Procedure, shortened: (§1)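 Seeds sown in loam–sand blend treated preemergence; plants in peat-based medium sprayed postemergence at 2–18 cm (1- to 4-leaf stage); chemicals in non-phytotoxic solvent with surfactant. Greenhouse 13–15 d, then visual rating versus controls on 0–100 scale (0 no effect, 100 complete control).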
# [2] = test system: blackgrass (Alopecurus myosuroides); conditions: Preemergence; for Plant response rating, Blackgrass: scale 0 to 100, 0 is no effect, 100 is complete control
# Procedure, shortened: as §1
# corn (Zea mays) = conditions: Preemergence; for Plant response rating, Corn: scale 0 to 100, 0 is no effect, 100 is complete control
# Procedure, shortened: as §1
# [3] = test system: crabgrass, large (large crabgrass, Digitaria sanguinalis); conditions: Preemergence; for Plant response rating, Crabgrass, Large: scale 0 to 100, 0 is no effect, 100 is complete control
# Procedure, shortened: as §1
# [4] = test system: foxtail, giant (giant foxtail, Setaria faberii); conditions: Preemergence; for Plant response rating, Foxtail, Giant: scale 0 to 100, 0 is no effect, 100 is complete control
# Procedure, shortened: as §1
# [5] = test system: galium (catchweed bedstraw, Galium aparine); conditions: Preemergence; for Plant response rating, Galium: scale 0 to 100, 0 is no effect, 100 is complete control
# Procedure, shortened: as §1
# [6] = test system: lambsquarters (Chenopodium album); conditions: Preemergence; for Plant response rating, Lambsquarters: scale 0 to 100, 0 is no effect, 100 is complete control
# Procedure, shortened: as §1
# [7] = test system: morningglory (Ipomoea coccinea); conditions: Preemergence; for Plant response rating, Morningglory: scale 0 to 100, 0 is no effect, 100 is complete control
# Procedure, shortened: as §1
# [8] = test system: oilseed rape (Brassica napus); conditions: Preemergence; for Plant response rating, Oilseed Rape: scale 0 to 100, 0 is no effect, 100 is complete control
# Procedure, shortened: as §1
# [9] = test system: pigweed (Amaranthus retroflexus); conditions: Preemergence; for Plant response rating, Pigweed: scale 0 to 100, 0 is no effect, 100 is complete control
# Procedure, shortened: as §1
# [10] = test system: ragweed (common ragweed, Ambrosia elatior); conditions: Preemergence; for Plant response rating, Ragweed: scale 0 to 100, 0 is no effect, 100 is complete control
# Procedure, shortened: as §1
# [11] = test system: ryegrass, Italian (Italian ryegrass, Lolium multiflorum); conditions: Preemergence; for Plant response rating, Ryegrass, Italian: scale 0 to 100, 0 is no effect, 100 is complete control
# Procedure, shortened: as §1
# [12] = test system: velvetleaf (Abutilon theophrasti); conditions: Preemergence; for Plant response rating, Velvetleaf: scale 0 to 100, 0 is no effect, 100 is complete control
# Procedure, shortened: as §1
# [13] = test system: waterhemp (common waterhemp, Amaranthus rudis); conditions: Preemergence; for Plant response rating, Waterhemp: scale 0 to 100, 0 is no effect, 100 is complete control
# Procedure, shortened: as §1
# [14] = test system: wheat (winter wheat, Triticum aestivum); conditions: Preemergence; for Plant response rating, Wheat: scale 0 to 100, 0 is no effect, 100 is complete control
# Procedure, shortened: as §1
# [15] = 250 g ai/ha, scale 0 to 100, 0 no effect, 100 complete control
structure (smiles),measurement,setting,value
CC(=O)Oc1c(Cl)nn(C)c(=O)c1-c1c(C)sc2ccc(C(F)(F)F)cc12 [Compound 152],"Plant response rating, Barnyardgrass",[1]; 31 g ai/ha,5
same,"Plant response rating, Barnyardgrass",[1]; 62 g ai/ha,5
same,"Plant response rating, Barnyardgrass",[1]; 125 g ai/ha,30
same,Barnyardgrass plant response rating,[1]; [15],70
same,"Plant response rating, Blackgrass",[2]; 31 g ai/ha,5
same,"Plant response rating, Blackgrass",[2]; 62 g ai/ha,5
same,"Plant response rating, Blackgrass",[2]; 125 g ai/ha,30
same,Blackgrass plant response rating,[2]; [15],35
same,"Plant response rating, Corn",corn (Zea mays); 31 g ai/ha,15
same,"Plant response rating, Corn",corn (Zea mays); 62 g ai/ha,10
same,"Plant response rating, Corn",corn (Zea mays); 125 g ai/ha,10
same,Corn plant response rating,corn (Zea mays); [15],15
same,"Plant response rating, Crabgrass, Large",[3]; 31 g ai/ha,0
same,"Plant response rating, Crabgrass, Large",[3]; 62 g ai/ha,0
same,"Plant response rating, Crabgrass, Large",[3]; 125 g ai/ha,10
same,"Crabgrass, Large plant response rating",[3]; [15],10
same,"Plant response rating, Foxtail, Giant",[4]; 31 g ai/ha,0
same,"Plant response rating, Foxtail, Giant",[4]; 62 g ai/ha,35
same,"Plant response rating, Foxtail, Giant",[4]; 125 g ai/ha,65
same,"Foxtail, Giant plant response rating",[4]; [15],90
same,"Plant response rating, Galium",[5]; 31 g ai/ha,50
same,"Plant response rating, Galium",[5]; 62 g ai/ha,45
same,"Plant response rating, Galium",[5]; 125 g ai/ha,95
same,Galium plant response rating,[5]; [15],100
same,"Plant response rating, Lambsquarters",[6]; 31 g ai/ha,50
same,"Plant response rating, Lambsquarters",[6]; 62 g ai/ha,75
same,"Plant response rating, Lambsquarters",[6]; 125 g ai/ha,90
same,Lambsquarters plant response rating,[6]; [15],98
same,"Plant response rating, Morningglory",[7]; 31 g ai/ha,10
same,"Plant response rating, Morningglory",[7]; 62 g ai/ha,40
same,"Plant response rating, Morningglory",[7]; 125 g ai/ha,75
same,Morningglory plant response rating,[7]; [15],90
same,"Plant response rating, Oilseed Rape",[8]; 31 g ai/ha,50
same,"Plant response rating, Oilseed Rape",[8]; 62 g ai/ha,85
same,"Plant response rating, Oilseed Rape",[8]; 125 g ai/ha,95
same,Oilseed Rape plant response rating,[8]; [15],100
same,"Plant response rating, Pigweed",[9]; 31 g ai/ha,80
same,"Plant response rating, Pigweed",[9]; 62 g ai/ha,100
same,"Plant response rating, Pigweed",[9]; 125 g ai/ha,100
same,Pigweed plant response rating,[9]; [15],100
same,"Plant response rating, Ragweed",[10]; 31 g ai/ha,85
same,"Plant response rating, Ragweed",[10]; 62 g ai/ha,40
same,"Plant response rating, Ragweed",[10]; 125 g ai/ha,75
same,Ragweed plant response rating,[10]; [15],90
same,"Plant response rating, Ryegrass, Italian",[11]; 31 g ai/ha,10
same,"Plant response rating, Ryegrass, Italian",[11]; 62 g ai/ha,50
same,"Plant response rating, Ryegrass, Italian",[11]; 125 g ai/ha,90
same,"Ryegrass, Italian plant response rating",[11]; [15],90
same,"Plant response rating, Velvetleaf",[12]; 31 g ai/ha,15
same,"Plant response rating, Velvetleaf",[12]; 62 g ai/ha,40
same,"Plant response rating, Velvetleaf",[12]; 125 g ai/ha,65
same,Velvetleaf plant response rating,[12]; [15],75
same,"Plant response rating, Waterhemp",[13]; 31 g ai/ha,20
same,"Plant response rating, Waterhemp",[13]; 62 g ai/ha,85
same,"Plant response rating, Waterhemp",[13]; 125 g ai/ha,85
same,Waterhemp plant response rating,[13]; [15],75
same,"Plant response rating, Wheat",[14]; 31 g ai/ha,0
same,"Plant response rating, Wheat",[14]; 62 g ai/ha,10
same,"Plant response rating, Wheat",[14]; 125 g ai/ha,25
same,Wheat plant response rating,[14]; [15],85
